Where two headings read alike, the source gives them in different places.
Assays:
Assay in all cases: Glasshouse assay for herbicidal activity (pre- and post-emergence), percentage phytotoxicity
Format in all cases: in vivo
[1] = system: Alopecurus myosuroides (ALOMY); settings: Alopecurus myosuroides
Protocol: (§1) Test—Glasshouse Assay for Herbicidal Activity
(§2) Seeds of a variety of monocotyledonous and dicotyledonous test plants are sown in standard soil in pots. The plants are cultivated for one day (for pre-emergence (PRE)) or for about 12 days (for post-emergence (POST)) under controlled conditions in a glasshouse (warm climate species at 24/18° C., cool climate species at 20/16° C., both at day/night; 16 hours light; 65% humidity).
(§3) The test plants are then grown on, in a glasshouse (greenhouse) under controlled conditions (warm climate species at 24/18° C., cool climate species at 20/16° C., both at day/night; 16 hours light; 65% humidity) and are watered twice daily. 15 days after application of the test herbicide (15 DAA) (for post-emergence), and 20 days after application of the test herbicide (20 DAA) (for pre-emergence), the test plants are evaluated visually, and an assessed percentage phytotoxicity score is given for each herbicidal application on each plant species (with 100%=total damage to plant; 0%=no damage to plant).
(§4) The plant species tested are as follows: Alopecurus myosuroides (ALOMY), Avena fatua (AVEFA), Lolium perenne (LOLPE), Echinochloa crus-galli (ECHCG).

[2] = system: Avena fatua (AVEFA); settings: Avena fatua
Protocol: as §1, §2, §3, §4

[3] = system: Echinochloa crus-galli (ECHCG); settings: Echinochloa crus-galli
Protocol: as §1, §2, §3, §4

[4] = system: Lolium perenne (LOLPE); settings: Lolium perenne
Protocol: as §1, §2, §3, §4

[5] = post-emergence, 360 h, 250 g/ha, post-emergence, 15 DAA, visual assessment (100%=total damage, 0%=no damage), read-out: Post-emergence herbicidal activity (percentage phytotoxicity) ALOMY POST
[6] = pre-emergence, 480 h, 250 g/ha, pre-emergence, 20 DAA, visual assessment (100%=total damage, 0%=no damage), read-out: Pre-emergence herbicidal activity (percentage phytotoxicity) ALOMY PRE
[7] = post-emergence, 360 h, 250 g/ha, post-emergence, 15 DAA, visual assessment (100%=total damage, 0%=no damage), read-out: Post-emergence herbicidal activity (percentage phytotoxicity) AVEFA POST
[8] = pre-emergence, 480 h, 250 g/ha, pre-emergence, 20 DAA, visual assessment (100%=total damage, 0%=no damage), read-out: Pre-emergence herbicidal activity (percentage phytotoxicity) AVEFA PRE
[9] = post-emergence, 360 h, 250 g/ha, post-emergence, 15 DAA, visual assessment (100%=total damage, 0%=no damage), read-out: Post-emergence herbicidal activity (percentage phytotoxicity) ECHCG POST
[10] = pre-emergence, 480 h, 250 g/ha, pre-emergence, 20 DAA, visual assessment (100%=total damage, 0%=no damage), read-out: Pre-emergence herbicidal activity (percentage phytotoxicity) ECHCG PRE
[11] = post-emergence, 360 h, 250 g/ha, post-emergence, 15 DAA, visual assessment (100%=total damage, 0%=no damage), read-out: Post-emergence herbicidal activity (percentage phytotoxicity) LOLPE POST
[12] = pre-emergence, 480 h, 250 g/ha, pre-emergence, 20 DAA, visual assessment (100%=total damage, 0%=no damage), read-out: Pre-emergence herbicidal activity (percentage phytotoxicity) LOLPE PRE

SMILES	pest or weed control at 250 g/ha [1, 5] [%]	pest or weed control at 250 g/ha [1, 6] [%]	pest or weed control at 250 g/ha [2, 7] [%]	pest or weed control at 250 g/ha [2, 8] [%]	pest or weed control at 250 g/ha [3, 9] [%]	pest or weed control at 250 g/ha [3, 10] [%]	pest or weed control at 250 g/ha [4, 11] [%]	pest or weed control at 250 g/ha [4, 12] [%]	also measured
CCOCOC1=C(c2c(C)cc(-c3ncc(Cl)cn3)cc2C)C(=O)C(CC(=O)NC(C)(C)C)C1 (stereo not shown) [Compound P6]	–	–	–	–	–	–	–	–	pest or weed control at 250 g/ha ([1]; post-emergence, 360 h, Rate 250 g/ha, post-emergence, visual assessment 15 DAA, 100%=total damage, 0%=no damage, read-out: Post-emergence herbicidal activity (percentage phytotoxicity) ALOMY POST): 100%; pest or weed control at 250 g/ha ([1]; pre-emergence, 480 h, Rate 250 g/ha, pre-emergence, visual assessment 20 DAA, 100%=total damage, 0%=no damage, read-out: Pre-emergence herbicidal activity (percentage phytotoxicity) ALOMY PRE): 100%; pest or weed control at 250 g/ha ([2]; post-emergence, 360 h, Rate 250 g/ha, post-emergence, visual assessment 15 DAA, 100%=total damage, 0%=no damage, read-out: Post-emergence herbicidal activity (percentage phytotoxicity) AVEFA POST): 90%; pest or weed control at 250 g/ha ([2]; pre-emergence, 480 h, Rate 250 g/ha, pre-emergence, visual assessment 20 DAA, 100%=total damage, 0%=no damage, read-out: Pre-emergence herbicidal activity (percentage phytotoxicity) AVEFA PRE): 100%; pest or weed control at 250 g/ha ([3]; post-emergence, 360 h, Rate 250 g/ha, post-emergence, visual assessment 15 DAA, 100%=total damage, 0%=no damage, read-out: Post-emergence herbicidal activity (percentage phytotoxicity) ECHCG POST): 100%; pest or weed control at 250 g/ha ([3]; pre-emergence, 480 h, Rate 250 g/ha, pre-emergence, visual assessment 20 DAA, 100%=total damage, 0%=no damage, read-out: Pre-emergence herbicidal activity (percentage phytotoxicity) ECHCG PRE): 100%; pest or weed control at 250 g/ha ([4]; post-emergence, 360 h, Rate 250 g/ha, post-emergence, visual assessment 15 DAA, 100%=total damage, 0%=no damage, read-out: Post-emergence herbicidal activity (percentage phytotoxicity) LOLPE POST): 100%; pest or weed control at 250 g/ha ([4]; pre-emergence, 480 h, Rate 250 g/ha, pre-emergence, visual assessment 20 DAA, 100%=total damage, 0%=no damage, read-out: Pre-emergence herbicidal activity (percentage phytotoxicity) LOLPE PRE): 100%
Cc1cccc(CNC(=O)CC2CC(=O)C(c3c(C)cc(-c4ncc(Cl)cc4F)cc3C)C2=O)c1 (stereo not shown) [Compound A119]	–	–	–	–	–	–	–	–	pest or weed control at 250 g/ha ([1]; post-emergence, 360 h, Rate 250 g/ha, post-emergence, assessed visually 15 DAA, 100%=total damage, 0%=no damage, read-out: Post-emergence herbicidal activity (percentage phytotoxicity) ALOMY POST): 60%; pest or weed control at 250 g/ha ([1]; pre-emergence, 480 h, Rate 250 g/ha, pre-emergence, assessed visually 20 DAA, 100%=total damage, 0%=no damage, read-out: Pre-emergence herbicidal activity (percentage phytotoxicity) ALOMY PRE): 40%; pest or weed control at 250 g/ha ([2]; post-emergence, 360 h, Rate 250 g/ha, post-emergence, assessed visually 15 DAA, 100%=total damage, 0%=no damage, read-out: Post-emergence herbicidal activity (percentage phytotoxicity) AVEFA POST): 90%; pest or weed control at 250 g/ha ([2]; pre-emergence, 480 h, Rate 250 g/ha, pre-emergence, assessed visually 20 DAA, 100%=total damage, 0%=no damage, read-out: Pre-emergence herbicidal activity (percentage phytotoxicity) AVEFA PRE): 60%; pest or weed control at 250 g/ha ([3]; post-emergence, 360 h, Rate 250 g/ha, post-emergence, assessed visually 15 DAA, 100%=total damage, 0%=no damage, read-out: Post-emergence herbicidal activity (percentage phytotoxicity) ECHCG POST): 100%; pest or weed control at 250 g/ha ([3]; pre-emergence, 480 h, Rate 250 g/ha, pre-emergence, assessed visually 20 DAA, 100%=total damage, 0%=no damage, read-out: Pre-emergence herbicidal activity (percentage phytotoxicity) ECHCG PRE): 100%; pest or weed control at 250 g/ha ([4]; post-emergence, 360 h, Rate 250 g/ha, post-emergence, assessed visually 15 DAA, 100%=total damage, 0%=no damage, read-out: Post-emergence herbicidal activity (percentage phytotoxicity) LOLPE POST): 90%; pest or weed control at 250 g/ha ([4]; pre-emergence, 480 h, Rate 250 g/ha, pre-emergence, assessed visually 20 DAA, 100%=total damage, 0%=no damage, read-out: Pre-emergence herbicidal activity (percentage phytotoxicity) LOLPE PRE): 70%
Cc1cc(C)c(C2C(=O)CC(CC(=O)NC(C)C(F)(F)F)C2=O)c(C)c1 (stereo not shown) [Compound B63]	70	80	70	50	70	80	70	80	–
Cc1cc(-c2ncc(Cl)cc2F)cc(C)c1C1C(=O)CC(CC(=O)NC/C=C/Cl)C1=O (stereo not shown) [Compound B162]	100	100	100	90	100	100	100	100	–
Cc1cc(C)c(C2C(=O)CC(CC(=O)NC/C=C/Br)C2=O)c(C)c1 (stereo not shown) [Compound B115]	80	80	80	50	90	100	100	100	–
Cc1cc(-c2ncccc2Cl)cc(C)c1C1C(=O)CC(CC(=O)NC(C)(C)C)C1=O (stereo not shown) [Compound B74]	60	10	60	0	60	10	50	30	–
COCCCNC(=O)CC1CC(=O)C(c2c(C)cc(C)cc2C)C1=O (stereo not shown) [Compound A176]	–	–	–	–	–	–	–	–	pest or weed control at 250 g/ha ([1]; post-emergence, 360 h, post-emergence, 250 g/ha, 15 DAA, visual score (100%=total damage; 0%=no damage), read-out: ALOMY POST herbicidal activity (percentage phytotoxicity)): 90%; pest or weed control at 250 g/ha ([1]; pre-emergence, 480 h, pre-emergence, 250 g/ha, 20 DAA, visual score (100%=total damage; 0%=no damage), read-out: ALOMY PRE herbicidal activity (percentage phytotoxicity)): 90%; pest or weed control at 250 g/ha ([2]; post-emergence, 360 h, post-emergence, 250 g/ha, 15 DAA, visual score (100%=total damage; 0%=no damage), read-out: AVEFA POST herbicidal activity (percentage phytotoxicity)): 90%; pest or weed control at 250 g/ha ([2]; pre-emergence, 480 h, pre-emergence, 250 g/ha, 20 DAA, visual score (100%=total damage; 0%=no damage), read-out: AVEFA PRE herbicidal activity (percentage phytotoxicity)): 90%; pest or weed control at 250 g/ha ([3]; post-emergence, 360 h, post-emergence, 250 g/ha, 15 DAA, visual score (100%=total damage; 0%=no damage), read-out: ECHCG POST herbicidal activity (percentage phytotoxicity)): 100%; pest or weed control at 250 g/ha ([3]; pre-emergence, 480 h, pre-emergence, 250 g/ha, 20 DAA, visual score (100%=total damage; 0%=no damage), read-out: ECHCG PRE herbicidal activity (percentage phytotoxicity)): 100%; pest or weed control at 250 g/ha ([4]; post-emergence, 360 h, post-emergence, 250 g/ha, 15 DAA, visual score (100%=total damage; 0%=no damage), read-out: LOLPE POST herbicidal activity (percentage phytotoxicity)): 100%; pest or weed control at 250 g/ha ([4]; pre-emergence, 480 h, pre-emergence, 250 g/ha, 20 DAA, visual score (100%=total damage; 0%=no damage), read-out: LOLPE PRE herbicidal activity (percentage phytotoxicity)): 100%
C=C(C)CNC(=O)CC1CC(=O)C(c2c(C)cc(-c3ccc(Br)cn3)cc2C)C1=O (stereo not shown) [Compound B298]	–	–	–	–	–	–	–	–	pest or weed control at 250 g/ha ([1]; post-emergence, 360 h, POST-emergence, rate 250 g/ha, visual score 15 DAA (100%=total damage, 0%=no damage), read-out: Post-emergence herbicidal activity (percentage phytotoxicity) ALOMY POST): 100%; pest or weed control at 250 g/ha ([1]; pre-emergence, 480 h, PRE-emergence, rate 250 g/ha, visual score 20 DAA (100%=total damage, 0%=no damage), read-out: Pre-emergence herbicidal activity (percentage phytotoxicity) ALOMY PRE): 90%; pest or weed control at 250 g/ha ([2]; post-emergence, 360 h, POST-emergence, rate 250 g/ha, visual score 15 DAA (100%=total damage, 0%=no damage), read-out: Post-emergence herbicidal activity (percentage phytotoxicity) AVEFA POST): 100%; pest or weed control at 250 g/ha ([2]; pre-emergence, 480 h, PRE-emergence, rate 250 g/ha, visual score 20 DAA (100%=total damage, 0%=no damage), read-out: Pre-emergence herbicidal activity (percentage phytotoxicity) AVEFA PRE): 90%; pest or weed control at 250 g/ha ([3]; post-emergence, 360 h, POST-emergence, rate 250 g/ha, visual score 15 DAA (100%=total damage, 0%=no damage), read-out: Post-emergence herbicidal activity (percentage phytotoxicity) ECHCG POST): 100%; pest or weed control at 250 g/ha ([3]; pre-emergence, 480 h, PRE-emergence, rate 250 g/ha, visual score 20 DAA (100%=total damage, 0%=no damage), read-out: Pre-emergence herbicidal activity (percentage phytotoxicity) ECHCG PRE): 100%; pest or weed control at 250 g/ha ([4]; post-emergence, 360 h, POST-emergence, rate 250 g/ha, visual score 15 DAA (100%=total damage, 0%=no damage), read-out: Post-emergence herbicidal activity (percentage phytotoxicity) LOLPE POST): 90%; pest or weed control at 250 g/ha ([4]; pre-emergence, 480 h, PRE-emergence, rate 250 g/ha, visual score 20 DAA (100%=total damage, 0%=no damage), read-out: Pre-emergence herbicidal activity (percentage phytotoxicity) LOLPE PRE): 90%
